According to US11746343B2, “Wheat plants having increased resistance to imidazolinone herbicides” (Northwest Plant Breeding Company, priority 2001, dated 2023):

How the values were obtained:
[1] = test system: HRS198208 (AP602CL) wheat plants; test: field plots and seed increases sprayed with imazamox, HRS198208 / AP602CL; type: in vivo, Triticum aestivum
Description: (§1) Progeny seed of HRS 198205 and HRS198208 were collected and planted in the field. Field plots were sprayed with imazamox herbicide at 80 g. a.i./ha.+1.0% Sun-It adjuvant (v/v). […] Additionally, seed harvested from plots of five of the HRS198208 sub-lines were combined into a single lot that was designated AP602CL (referred to above as Gunner IMI 208). Seed increases were conducted at several locations. All seed increases were sprayed with imazamox herbicide at 40 g. a.i./ha+0.25% (v/v) non-ionic surfactant.

[2] = test system: AHAS enzyme extracted from herbicide tolerant AP205CL plants; test: in vitro AHAS enzyme activity, enzyme extracted from AP205CL plants; type: biochemical, Triticum aestivum
Description: (§2) Both the AP205CL and AP602CL wheat plants are tolerant to imidazolinone herbicides due to a mutation of the AHAS enzyme that is resistant to inhibition by these herbicides in vitro. […] The values in FIG. 1 are expressed as a percent of uninhibited activity. […] This activity continues to decline to nearly 100 percent inhibition of the enzyme at higher herbicide concentrations ([…]). In contrast, the AHAS enzyme extracted from herbicide tolerant AP205CL plants retains nearly 90 percent of its activity at the […] imazamox concentration, and approximately one third of its activity at the higher (50 µM to 100 µM) concentrations. The AHAS enzyme extracted from herbicide tolerant AP602CL plants retains nearly 80-100 percent of its activity at the […] imazamox concentration, and nearly half of its activity at the higher ([…]) concentrations. These levels of activity are sufficient to allow the tolerant wheat plants to survive the application of imazamox, as was observed during the selection process (Example 1).
(§3) AHAS is known to be feedback inhibited by the branched chain amino acids. Valine and leucine in combination are especially effective inhibitors.

[3] = test system: AHAS enzyme from wild type Gunner wheat; test: in vitro AHAS enzyme activity, enzyme extracted from wild type wheat; type: biochemical, Triticum aestivum; parameters: unit of the concentration uncertain
Description: as §2, §3

Madsen1 wheat plants = test: greenhouse trial of tolerance of Madsen1 to imazamox; type: in vivo, Triticum aestivum; settings: 40 and 80 g/ha, 14 days after treatment, control Teal
Description: Madsen1 was evaluated for tolerance to the imidazolinone herbicide imazamox at 40 and 80 g/ha in a greenhouse trial. The susceptible wheat cultivar Teal was used as a control. Evaluation was made 14 days after treatment. Injury was scored on a 0-9 scale, 0 representing no injury and 9 representing plant death.

[4] = test system: AHAS extracted from Madsen1; test: in vitro AHAS activity, Madsen1 compared to wild type Madsen; type: biochemical, Triticum aestivum
Description: Because the tolerance in Madsen1 is due to a mutation in the AHAS enzyme rendering it resistant to inhibition by imidazolinone herbicides, the in vitro activity of AHAS extracted from wild type plants (not having the mutation for tolerance) can be compared to the in vitro activity of AHAS extracted from tolerant plants in the presence of varying concentrations of an imidazolinone (IMI) herbicide. Madsen1 was compared to the wild type variety Madsen.

[5] = test system: AHAS enzyme extracted from herbicide tolerant AP602CL plants; test: in vitro AHAS enzyme activity, enzyme extracted from AP602CL plants; type: biochemical, Triticum aestivum
Description: as §2, §3

Madsen1 wheat line = test: selection of tolerant Madsen line (M2 field, M3 greenhouse); type: in vivo, Triticum aestivum
Description: Seeds of the soft white winter wheat variety Madsen, were pre-soaked in tap water. After decanting the tap water, a solution of 0.03% EMS and 0.02% DES was poured into the seed container. The container was shaken every 10-15 minutes during the course of a two-hour treatment. The EMS and DES solution was decanted and a solution of 0.02% sodium azide in 0.001 M phosphate buffer was added. The container again was shaken every 10-15 minutes during the course of a two-hour treatment. Seeds were then rinsed in tap water and dried. After drying, seeds were planted. Planted seeds represented the M1 generation. M1 plants were allowed to self-pollinate and the M2 seed harvested as a bulk. Approximately 0.2 hectares of M2 seed were planted in the field and resultant plants treated with an imazamox rate of 40 g. ai/ha. Twelve M2 plants were identified as tolerant. These plants were dug, and sent to Pullman, Wash. for vernalization and M3 seed production. M3 seed from each of the M2 plants were planted in the greenhouse and resultant plants were vernalized for 8 weeks, then treated with 80 g. ai/ha of Imazamox. Plants were selected based upon observed levels of tolerance and repotted for seed production. The M2:3 line designated Madsen1 selected as tolerant to 40 g/ha imazamox as an M2 was confirmed as tolerant to imazamox at the 80 g/ha rate applied to M3 progeny.

[6] = test system: HRS 198205 (AP205CL) wheat plants; test: field plots and seed increases sprayed with imazamox, HRS 198205 / AP205CL; type: in vivo, Triticum aestivum
Description: as §1

Compound: COCc1cnc(C2=NC(C)(C(C)C)C(=O)N2)c(C(=O)O)c1 (stereo not drawn) [imazamox]
- herbicide susceptible plants in seed increases ([1]; 40 g. a.i./ha + 0.25% (v/v) non-ionic surfactant, AP602CL): No herbicide susceptible plants were observed
- tolerance in field plots ([1]; 80 g. a.i./ha + 1.0% Sun-It adjuvant (v/v), HRS198208): same level of acceptable tolerance
- AHAS activity retained ([2]; 1 M imazamox): ~90%
- AHAS activity retained (fraction of its activity) ([2]; higher (50 M to 100 µM) imazamox concentrations): approximately one third
- inhibition of the AHAS enzyme ([3]; higher herbicide concentrations (100 (unit uncertain))): ~100%
- reduction of AHAS activity ([3]; low concentration (1 (unit uncertain)) of imazamox): 1 to 35%
- tolerance (injury scored on a 0-9 scale) (Madsen1 wheat plants): has tolerance
- residual uninhibited AHAS ([4]; 100 μM imazamox, Madsen1): sufficient to provide a herbicide tolerant response
- uninhibited AHAS enzyme activity as imazamox concentration increased ([4]; Madsen1 compared to wild type Madsen): decreased faster in wild type lines than in Madsen)
- AHAS activity retained ([5]; 1 M imazamox): 80-100%
- AHAS activity retained (fraction of its activity) ([5]; higher (50 µM to 100 µM) imazamox concentrations): half
- tolerance of M2 plants (Madsen1 wheat line; 40 g/ha imazamox, field, M2): tolerant
- tolerance of M3 progeny (Madsen1 wheat line; 80 g/ha imazamox, greenhouse, M3 progeny): tolerant
- herbicide susceptible plants in seed increases ([6]; 40 g. a.i./ha + 0.25% (v/v) non-ionic surfactant, AP205CL): No herbicide susceptible plants were observed
- tolerance in field plots ([6]; 80 g. a.i./ha + 1.0% Sun-It adjuvant (v/v), HRS 198205): same level of acceptable tolerance
